Assay [1] has as its target T1, Human serotonin (SERT) transporter (Homo sapiens, UniProt P31645).
T1 construct: expressed in transfected cells; host or cells: HEK293
Description: In vitro inhibitor activity assay (3H-serotonin uptake). Type of assay: cell-based. The note with it: transfected HEK293 cells, read-out: IC50 hSERT (serotonin reuptake). As for the experimental part:
(§1) Human serotonin (SERT) or norepinephrine (NET) transporters are cloned into a pcDNA3 vector and stably transfected into HEK293 cells. Both assays are modified from methods described by Eshleman et al., J. Pharmacol. Exptl Ther., 289, 877-885 (1999)) and Wall et al., Mol. Pharmacol., 47, 544-550 (1995). Cells are grown on poly-D-lysine coated flasks or 96-well plates in D-MEM/F-12 3:1 (3 part of Dulbecco's Modified Eagle Medium in 1 part of Nutrient Mix F-12 medium) containing 5% fetal bovine serum, 250 μg/mL geneticin, and 20 mM Hepes. Cells are plated at 40,000 cells per well in 200 μL of medium and incubated for 18-24 hours at 37° C. prior to the assay. The assay uptake buffer consists of Krebs-Ringer bicarbonate stock supplemented with 1.26% sodium bicarbonate, 20 mM HEPES, and 100 μM each of pargyline and ascorbic acid. Following a 30 minute pre-incubation with the compound or indatraline (as a positive control), ^3H-serotonin or ^3H-norepinephrine is added for 1 min. and 50 sec. The ^3H-substrate is then removed, and the cells washed 4× with 100 μL of cold uptake buffer using multimek. […] Microscint™ 40 is added to each well and the radioactivity is quantitated for 1 min. per well. Results are analyzed as IC50 values using a four-parameter logistic curve fitting program (ActivityBase v5.3.1.22).

Assay [2] addresses T2, Human dopamine transporter (DAT) (Homo sapiens, UniProt Q01959).
T2 construct: expressed in transfected cells; host or cells: HEK293 (membrane stocks)
Description: In vitro transporter affinity assay (SPA radioligand binding), DAT. Particulars: membranes of transfected HEK293 cells, 3H-WIN 35428; read-out: Ki hDAT. As for the experimental part: (§2) Human serotonin transporter (SERT), norepinephrine transporter (NET), or dopamine transporter (DAT) are cloned into a pcDNA3 vector and stably transfected into HEK293 cells. […] Fluoxetine (100 μM) is used to determine non-specific binding, and venlafaxine is used as a positive control. NET membranes are used at a concentration of 8 μg/well in assay buffer containing 50 mM Tris, 300 mM NaCl, and 5 mM KCl (pH 7.4). ^3H-Nisoxetine is used as the tracer, 100 μM desipramine serves as a measure of non-specific binding, and nisoxetine is used as the positive control. For DAT binding assays, the assay buffer is the same as for SERT, membranes are used at 20 μg/well, 100 μM nomifensine is used to determine non-specific binding, ^3H-WIN 35428 (Perkin Elmer) serves as the radiotracer, and nomifensine is used as the positive control. In all cases, 0.5 mg/well of wheat-germ agglutinin scintillation proximity assay beads (WGA-SPA, GE Health Sciences) are used to capture the membranes, and plates are incubated for 3 hours at room temperature. Radioactivity is measured and Ki values calculated using a four-parameter logistic curve fitting program (ActivityBase v5.3.1.22).

For assay [3], the target named is T3, Human serotonin transporter (SERT) (Homo sapiens, UniProt P31645).
T3 construct: expressed in transfected cells; host or cells: HEK293 (membrane stocks)
T3 sequence (P31645 whole entry): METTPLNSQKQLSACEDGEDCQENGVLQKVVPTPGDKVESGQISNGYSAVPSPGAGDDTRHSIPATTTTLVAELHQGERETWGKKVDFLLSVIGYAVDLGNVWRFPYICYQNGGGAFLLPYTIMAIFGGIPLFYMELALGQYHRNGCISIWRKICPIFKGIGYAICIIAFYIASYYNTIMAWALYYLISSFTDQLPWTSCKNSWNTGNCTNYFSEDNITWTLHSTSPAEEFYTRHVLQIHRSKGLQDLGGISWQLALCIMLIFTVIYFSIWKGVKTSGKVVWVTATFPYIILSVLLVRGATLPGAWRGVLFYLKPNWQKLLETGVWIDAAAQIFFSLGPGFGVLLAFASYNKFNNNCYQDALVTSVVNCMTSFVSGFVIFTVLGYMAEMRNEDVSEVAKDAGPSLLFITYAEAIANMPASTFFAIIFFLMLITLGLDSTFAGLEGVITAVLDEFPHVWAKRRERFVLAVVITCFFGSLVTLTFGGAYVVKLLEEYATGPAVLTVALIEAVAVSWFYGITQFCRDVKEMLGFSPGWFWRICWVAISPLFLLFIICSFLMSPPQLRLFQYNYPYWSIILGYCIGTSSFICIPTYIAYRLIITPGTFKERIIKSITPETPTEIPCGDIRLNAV
Description: In vitro transporter affinity assay (SPA radioligand binding), SERT. Particulars: membranes of transfected HEK293 cells, 3H-citalopram; read-out: Ki hSERT. The method, then:
as §2

Assay [4] concerns the target T4, Human norepinephrine transporter (NET) (Homo sapiens, UniProt P23975).
T4 construct: expressed in transfected cells; host or cells: HEK293 (membrane stocks)
Description: In vitro transporter affinity assay (SPA radioligand binding), NET. The note with it: membranes of transfected HEK293 cells, 3H-nisoxetine; read-out: Ki hNET. As for the experimental part: as §2

The target of assay [5] is T5, Human norepinephrine (NET) transporter (Homo sapiens, UniProt P23975).
T5 construct: expressed in transfected cells; host or cells: HEK293
T5 sequence (P23975 whole entry): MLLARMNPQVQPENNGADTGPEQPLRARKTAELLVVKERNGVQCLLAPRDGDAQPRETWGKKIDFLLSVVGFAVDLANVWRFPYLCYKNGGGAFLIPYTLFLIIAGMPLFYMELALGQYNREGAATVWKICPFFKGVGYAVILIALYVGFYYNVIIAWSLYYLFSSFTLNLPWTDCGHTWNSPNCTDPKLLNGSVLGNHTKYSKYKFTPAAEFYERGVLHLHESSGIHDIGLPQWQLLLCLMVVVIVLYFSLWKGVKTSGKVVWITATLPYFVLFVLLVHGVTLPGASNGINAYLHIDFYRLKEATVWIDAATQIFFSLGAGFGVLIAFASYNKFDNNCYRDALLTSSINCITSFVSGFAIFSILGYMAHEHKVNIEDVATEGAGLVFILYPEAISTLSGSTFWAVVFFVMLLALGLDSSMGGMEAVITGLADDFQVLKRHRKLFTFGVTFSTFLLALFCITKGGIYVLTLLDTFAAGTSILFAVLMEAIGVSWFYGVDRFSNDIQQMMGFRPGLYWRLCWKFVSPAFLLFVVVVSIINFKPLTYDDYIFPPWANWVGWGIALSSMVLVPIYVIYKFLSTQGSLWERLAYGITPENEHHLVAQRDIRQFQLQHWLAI
Description: In vitro inhibitor activity assay (3H-norepinephrine uptake). The format is cell-based. The note with it: transfected HEK293 cells, read-out: IC50 hNET (norepinephrine reuptake). As for the experimental part:
as §1

In assay [6] the target is T6, serotonin transporter (Rattus norvegicus, UniProt P31652).
T6 construct: from tissue; host or cells: rat frontal cortex, in vivo
T6 sequence (P31652 whole entry): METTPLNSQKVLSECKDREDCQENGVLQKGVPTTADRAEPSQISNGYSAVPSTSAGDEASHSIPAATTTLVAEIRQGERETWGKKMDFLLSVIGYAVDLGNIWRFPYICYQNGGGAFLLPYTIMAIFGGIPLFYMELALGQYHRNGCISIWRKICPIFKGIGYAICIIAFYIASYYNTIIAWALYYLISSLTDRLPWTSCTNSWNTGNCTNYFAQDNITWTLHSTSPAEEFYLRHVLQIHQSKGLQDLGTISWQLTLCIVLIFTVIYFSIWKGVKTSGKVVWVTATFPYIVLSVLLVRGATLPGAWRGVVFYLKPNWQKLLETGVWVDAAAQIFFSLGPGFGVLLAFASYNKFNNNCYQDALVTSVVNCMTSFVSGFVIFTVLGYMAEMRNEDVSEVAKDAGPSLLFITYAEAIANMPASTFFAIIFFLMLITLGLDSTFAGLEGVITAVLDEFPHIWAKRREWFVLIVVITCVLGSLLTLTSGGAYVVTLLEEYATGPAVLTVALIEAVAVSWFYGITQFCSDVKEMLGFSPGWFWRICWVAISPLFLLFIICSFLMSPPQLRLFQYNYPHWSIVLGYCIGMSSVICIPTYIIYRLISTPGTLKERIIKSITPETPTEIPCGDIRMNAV
Description: In vivo transporter occupancy assay. The note with it: 1 hr. post dosing. As for the experimental part: Male Sprague-Dawley rats weighing 240-280 gm in groups of three are used to determine serotonin transporter occupancy. Animals are fasted at least 12 hr. before the start of each experiment. Animals are orally administered vehicle or 0.10, 0.33, 1.00, 3.33 or 10.00 mg/kg doses of test compound in 4% Glucose in 25 mM Phosphate buffer, (pH=3.0) containing 0.1, 0.33, 1, 3.33, or 10% CAPTISOL™ (concentration of CAPTISOL™ (%)=dose of test compound (mg/kg)). […] After an additional 40 min., rats are sacrificed via cervical dislocation, and a portion of the frontal cortex is removed and placed on dry ice. An additional control group of three rats is dosed with paroxetine maleate at 12 mg/kg, i.v., followed by N,N-dimethyl-2-(2-amino-4-cyanophenylthio)-benzylamine (10 μg/kg) 1 hr. later.
Tissues are allowed to thaw and then four volumes (w/v) of acetonitrile containing 0.1% formic acid is added. Samples are homogenized using an ultrasonic dismembrator probe and centrifuged for 16 min. at 14,000×g. One volume of the supernatant is added to 3 volumes of water in an autosampler vial and vortexed. Separation is achieved with a Zorbax C18 HPLC column and a mobile phase gradient of from 20% to 90% acetonitrile/water, each with 0.1% formic acid. The total HPLC run time is 3.5 min with an additional 2.0 min re-equilibration time. An API4000 triple quadrupole mass spectrometer (Applied Biosystems, Foster City, Calif., USA) operating in MRM mode is used for detection. The ion transition monitored is 284.1/239.1 m/z for N,N-dimethyl-2-(2-amino-4-cyanophenylthio)-benzylamine.
The level of N,N-dimethyl-2-(2-amino-4-cyanophenylthio)-benzylamine (tracer) in the cortex of vehicle-pretreated animals represents the sum of nonspecific and specific binding and is assigned the value of 0% occupancy (all receptors available to the tracer). The lower level of tracer in animals pretreated with the very high intravenous dose of paroxetine maleate, the positive control group, represents the nonspecific binding and is assigned the value of 100% occupancy (no receptors available to the tracer). Levels of tracer in the cortex following oral administration of test compound are interpolated linearly between these two extremes in order to determine the percent serotonin transporter occupancy. Data are expressed as means±SEM (n=3/group) calculated using Prism version 3.0 (GraphPad Software Inc., San Diego, Calif., USA). The ED80 values are obtained by fitting the data to a sigmoidal curve using nonlinear regression.

Assay [7] concerns the target T7, norepinephrine transporter (Rattus norvegicus, UniProt Q63380).
T7 construct: from tissue; host or cells: rat cortex, in vivo
Description: Alpha MMT: monoamine depletion inhibition assay. The note with it: rat cortex. Type of assay: in vivo. The text has this: DL-Para-chloroamphetamine (PCA) is transported into serotonergic neurons via the neuronal transporter and produces a long-lasting depletion of rat brain serotonin (5-HT) concentrations. Alpha-methyl-m-tyrosine (α-MMT) is a noradrenergic depleting agent that is β-hydroxylated to metaraminol in vivo and actively transported into norepinephrine (NE) neurons via the neuronal transporter producing a decrease in NE levels in rat brain. The depletion of rat brain 5-HT levels by PCA and rat cortical NE concentrations by α-MMT is blocked by agents with 5-HT and NE reuptake inhibitor activity. Compounds of the present invention may be assayed for their activity to prevent the depletion of rat brain 5-HT concentrations by PCA and the depletion of rat cortical NE concentrations by a-MMT in fed and fasted rats in vivo using the following methods.
Male Sprague Dawley rats weighing 160-180 grams are fasted overnight or allowed food ad libidum. […] All compounds are administered at 1 mL/kg. Animals are sacrificed 2 hr. after PCA or α-MMT administration. Tissues are dissected, frozen on dry ice and stored at −70° prior to analysis. […] The data are collected using an EZChrom™ chromatography data system (Scientific Software, San Ramon, Calif.) which calculates peak heights and sample concentrations. Analysis of variance, followed by Tukey's Honestly Significant Difference test post hoc, identifies significant differences between treatment groups (P≦0.05). Doses that antagonized the PCA- or α-MMT-induced depletion of monoamines by 50 percent, (ED50's) are calculated using a best-fit linear regression analysis.

For assay [8], the system named is Formalin induced pain. Description: Manual formalin test. The format is in vivo. The note with it: rat. As for the experimental part:
The manual formalin test is performed in custom-made Plexiglas boxes approx. 25 cm×25 cm×20 cm in size. A mirror placed at the back of the cage allows the unhindered observation of the formalin injected paw. Rats (Charles River (CRL) Sprague Dawley (SD)) are placed individually in the cubicles at least 30 min. prior to the experiment. All testing is conducted between 08:00 and 14:00 h and the testing room temperature is maintained at 21-23° C. Peripherally administered test compounds are dosed at varying times before the formalin challenge. Formalin (50 μL of a 5% solution in saline) is injected subcutaneously into the dorsal lateral surface of the right hind paw with a 27 gauge needle. Observation starts immediately after the formalin injection. Formalin induced pain is quantified by recording the number of seconds each licking event lasts in 5 min. intervals. The pain scoring is measured for 50 min. after the formalin injection. Two phases of pain behavior are observed as previously described (Wheeler-Aceto, H., Porreca, F. and Cowan, A., The rat paw formalin test: comparison of noxious agents, Pain 40 (1990) 229-238.). The early phase starts immediately after the formalin injection and lasts approximately 5 min., followed by the late phase that starts between minutes 10-15 with a maximum response typically observed around 25-35 min. after the formalin injection. After the 50 min. observation period, animals are sacrificed with CO2.
Of the different scoring parameters reported for the formalin test, the total time spent licking and biting the injected paw is considered to be most relevant. (Abbott et al., The formalin test: scoring properties of the first and second phases of the pain response in rats, Pain 60 (1995) 91-102; Coderre et al., The formalin test: a validation of the weighted-scores method of the behavioral pain rating, Pain 54 (1993) 43-50).) The early phase score is the sum of time spent licking (seconds) from time 0 to 5 min. The late phase score is obtained by adding the total number of seconds spent licking from minute 16 to min. 40 of the observation period. Data are presented as means with standard errors of means (±SEM). Data is evaluated by one-way analysis of variance (ANOVA) and the appropriate contrasts analyzed by Dunnett “t′ test for two sided comparisons. Differences are considered to be significant if the P-value is less than 0.05. (Abbott, supra.; Coderre, supra.; and Wheeler-Aceto, supra.)

What is called IC50 is the concentration at which inhibition is half-maximal. Broadly, the Ki is the dissociation constant of the complex between target and ligand, obtained from inhibition or displacement. The inhibition is the relative decrease from the control value, in per cent. What is called ED50 is the midpoint of the dose-response relation.

T7 sequence (Q63380 1-617): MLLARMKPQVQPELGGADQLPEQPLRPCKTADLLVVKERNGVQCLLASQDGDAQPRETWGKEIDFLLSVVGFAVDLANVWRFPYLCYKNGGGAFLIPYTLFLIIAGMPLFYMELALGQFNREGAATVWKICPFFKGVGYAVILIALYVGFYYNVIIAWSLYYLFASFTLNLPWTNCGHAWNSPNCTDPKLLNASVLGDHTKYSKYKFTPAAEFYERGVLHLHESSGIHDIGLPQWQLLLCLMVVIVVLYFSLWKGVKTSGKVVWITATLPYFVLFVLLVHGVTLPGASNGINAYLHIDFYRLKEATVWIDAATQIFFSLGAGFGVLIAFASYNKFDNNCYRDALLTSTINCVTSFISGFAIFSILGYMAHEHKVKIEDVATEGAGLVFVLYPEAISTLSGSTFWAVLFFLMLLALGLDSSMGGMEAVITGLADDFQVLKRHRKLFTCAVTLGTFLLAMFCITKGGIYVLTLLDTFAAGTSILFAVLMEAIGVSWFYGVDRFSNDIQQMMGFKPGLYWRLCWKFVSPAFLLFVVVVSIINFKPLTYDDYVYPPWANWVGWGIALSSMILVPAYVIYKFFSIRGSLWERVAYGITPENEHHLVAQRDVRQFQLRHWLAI
T1 sequence (P31645 whole entry): as the sequence (P31645 whole entry) above
T4 sequence (P23975 whole entry): as the sequence (P23975 whole entry) above
T2 sequence (Q01959 whole entry): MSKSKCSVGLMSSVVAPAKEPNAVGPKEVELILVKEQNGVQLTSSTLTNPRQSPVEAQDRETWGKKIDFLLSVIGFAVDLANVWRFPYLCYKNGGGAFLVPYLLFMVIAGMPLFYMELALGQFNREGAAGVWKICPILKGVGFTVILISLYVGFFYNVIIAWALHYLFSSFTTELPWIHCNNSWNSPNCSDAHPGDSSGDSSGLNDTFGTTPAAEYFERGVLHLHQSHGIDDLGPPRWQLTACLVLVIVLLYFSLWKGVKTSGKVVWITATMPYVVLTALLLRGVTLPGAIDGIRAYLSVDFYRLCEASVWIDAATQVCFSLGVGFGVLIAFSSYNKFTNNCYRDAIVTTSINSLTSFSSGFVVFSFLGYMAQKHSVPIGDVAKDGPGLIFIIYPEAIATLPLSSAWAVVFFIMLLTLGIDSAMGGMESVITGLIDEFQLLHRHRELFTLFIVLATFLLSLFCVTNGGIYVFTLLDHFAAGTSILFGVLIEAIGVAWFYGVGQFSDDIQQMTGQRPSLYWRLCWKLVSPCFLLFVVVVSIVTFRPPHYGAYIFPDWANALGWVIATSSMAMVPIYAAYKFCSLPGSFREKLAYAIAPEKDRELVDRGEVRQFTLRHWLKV

With `COc1ccc(O[C@@H](CC(C)C)[C@H]2CCNC2)c(C)n1.O=C(O)C(O)C(O)C(=O)O` [EXAMPLE 19, (3S)-3-(1-(6-methoxy-2-methyl-3-pyridyloxy)-3-methyl-butyl)-pyrrolidine, L-tartrate (S-2)], the IC50 worked out at 2.15 ± 0.7 nM in assay [1] and 7.34 ± 1.48 nM in assay [5]. For the same compound, the inhibition constant Ki was 461 ± 72 nM in assay [2], 0.199 ± 0.02 nM in assay [3] and 1.08 ± 0.32 nM in assay [4]. Besides, in assay [6] (po, rat frontal cortex, 0.3 mg/kg p.o.), the receptor occupancy at 0.3 mg/kg turned out to be 5.9%. Moreover, the receptor occupancy at 1 mg/kg in assay [6] (po, rat frontal cortex, 1 mg/kg p.o.) was 25%. Besides, the receptor occupancy at 3 mg/kg in assay [6] (po, rat frontal cortex, 3 mg/kg p.o.) is 43.3%. Further, the receptor occupancy at 10 mg/kg in assay [6] (po, rat frontal cortex, 10 mg/kg p.o.) was 94%. The compound also had a receptor occupancy at 30 mg/kg in assay [6] (po, rat frontal cortex, 30 mg/kg p.o.) of 106%. In assay [6] (rat, p.o.), the “absolute ED80 (serotonin transporter occupancy)” value is reported as 7.1 mg/kg. Moreover, the inhibition at 3 mg/kg in assay [7] (po, 3 mg/kg p.o., read-out: % Inhibition (α-MMT induced depletion of norepinephrine)) is 21%. Further, in assay [7] (po, 10 mg/kg p.o., read-out: % Inhibition (α-MMT induced depletion of norepinephrine)), the inhibition at 10 mg/kg turned out to be 79%. The inhibition at 30 mg/kg in assay [7] (po, 30 mg/kg p.o., read-out: % Inhibition (α-MMT induced depletion of norepinephrine)) is 115%. The “% Inhibition (α-MMT induced depletion of norepinephrine)” value was found to be 7.0% in assay [7] (0.3 mg/kg p.o.) and 5.6% in assay [7] (1 mg/kg p.o.). Also, the ED50 in assay [8] (po, p.o., read-out: ED50 (reduction of pain behavior)) is 13.4 mg/kg. In addition, the “% reduction in total time licking” value in assay [8] (1 mg/kg p.o.) is reported as 4.5%; in assay [8] (3 mg/kg p.o.) it was 14.4%; in assay [8] (10 mg/kg p.o.), 38.0%; in assay [8] (30 mg/kg p.o.), 78.4%.

(Values after patent US8173821B2, “Serotonin and norepinephrine reuptake inhibitor” (Eli Lilly and Company, priority 2009, dated 2012).)
